Several values for one entry are separate records, joined by “and”; a condition that tells them apart may be missing. Equal entries are not always repeated. Inconclusive results and toxic doses are left out.
System: P388 leukemia ip, CD2F1 mice, survival T/C
Assay: NCI In Vivo Anticancer Drug Screen. Data for tumor model P388 Leukemia (intraperitoneal) in CD2F1 (CDF1) mice
Settings: endpoint: median survival time, higher = longer survival
Method in brief: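 Mice carrying the transplanted tumor received test compound or vehicle. Survival was recorded in each group, and the value is the treated-group measurement divided by that of the vehicle-treated control group.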

SMILES: O=C1NC2(CCCCC2)C(=O)N1CCN(CCCl)CCCl
- T/C (dose: 0.62 mg/kg/injection, schedule: Q01DX005 (iv), vehicle: other): 108 % of control
- T/C (dose: 0.75 mg/kg/injection, schedule: Q01DX009 (ip), vehicle: saline): 112 % of control and 114 % of control and 122 % of control
- T/C (dose: 1.25 mg/kg/injection, schedule: Q01DX001 (iv), vehicle: other): 112 % of control
- T/C (dose: 1.25 mg/kg/injection, schedule: Q01DX001 (oral), vehicle: other): 101 % of control
- T/C (dose: 1.25 mg/kg/injection, schedule: Q01DX005 (iv), vehicle: other): 116 % of control
- T/C (dose: 1.25 mg/kg/injection, schedule: Q01DX009 (ip), vehicle: saline with Tween-80): 124 % of control
- T/C (dose: 1.5 mg/kg/injection, schedule: Q01DX005 (ip), vehicle: saline): 118 % of control and 119 % of control
- T/C (dose: 1.5 mg/kg/injection, schedule: Q01DX005 (ip), vehicle: suspension in saline): 119 % of control
- T/C (dose: 1.5 mg/kg/injection, schedule: Q01DX005 (iv), vehicle: suspension in saline): 101 % of control
- T/C (dose: 1.5 mg/kg/injection, schedule: Q01DX009 (ip), vehicle: Klucel (hydroxypropylcellulose) (HPC)): 164 % of control
- T/C (dose: 1.5 mg/kg/injection, schedule: Q01DX009 (ip), vehicle: other): 120 % of control
- T/C (dose: 2.5 mg/kg/injection, schedule: Q01DX001 (ip), vehicle: other): 121 % of control
- T/C (dose: 2.5 mg/kg/injection, schedule: Q01DX001 (iv), vehicle: other): 109 % of control
- T/C (dose: 2.5 mg/kg/injection, schedule: Q01DX005 (iv), vehicle: clinical formulation): 115 % of control and 121 % of control
- T/C (dose: 2.5 mg/kg/injection, schedule: Q01DX005 (iv), vehicle: other): 109 % of control
- T/C (dose: 2.5 mg/kg/injection, schedule: Q01DX005 (oral), vehicle: other): 100 % of control
- T/C (dose: 2.5 mg/kg/injection, schedule: Q01DX009 (ip), vehicle: clinical formulation): 152 % of control and 154 % of control and 180 % of control
- T/C (dose: 2.5 mg/kg/injection, schedule: Q01DX009 (ip), vehicle: other): 151 % of control
- T/C (dose: 2.5 mg/kg/injection, schedule: Q01DX009 (ip), vehicle: saline with Tween-80): 167 % of control
- T/C (dose: 2.5 mg/kg/injection, schedule: Q01DX009 (oral), vehicle: other): 109 % of control
- T/C (dose: 3.0 mg/kg/injection, schedule: Q01DX005 (iv), vehicle: suspension in saline): 105 % of control
- T/C (dose: 3.0 mg/kg/injection, schedule: Q01DX009 (ip), vehicle: Klucel (hydroxypropylcellulose) (HPC)): 166 % of control and 169 % of control
- T/C (dose: 3.0 mg/kg/injection, schedule: Q01DX009 (ip), vehicle: saline with Tween-80): 163 % of control
- T/C (dose: 3.0 mg/kg/injection, schedule: Q01DX009 (oral), vehicle: Klucel (hydroxypropylcellulose) (HPC)): 108 % of control
- T/C (dose: 3.0 mg/kg/injection, schedule: Q01DX009 (oral), vehicle: saline): 102 % of control
- T/C (dose: 5.0 mg/kg/injection, schedule: Q01DX001 (iv), vehicle: other): 105 % of control
- T/C (dose: 5.0 mg/kg/injection, schedule: Q01DX001 (oral), vehicle: other): 99 % of control
- T/C (dose: 5.0 mg/kg/injection, schedule: Q01DX005 (iv), vehicle: clinical formulation): 156 % of control
- T/C (dose: 5.0 mg/kg/injection, schedule: Q01DX005 (iv), vehicle: other): 113 % of control
- T/C (dose: 5.0 mg/kg/injection, schedule: Q01DX005 (oral), vehicle: other): 99 % of control
- T/C (dose: 5.0 mg/kg/injection, schedule: Q01DX009 (ip), vehicle: other): 175 % of control
- T/C (dose: 5.0 mg/kg/injection, schedule: Q01DX009 (oral), vehicle: other): 114 % of control
- T/C (dose: 6.0 mg/kg/injection, schedule: Q01DX005 (ip), vehicle: suspension in saline): 164 % of control
- T/C (dose: 6.0 mg/kg/injection, schedule: Q01DX005 (iv), vehicle: suspension in saline): 108 % of control
- T/C (dose: 6.0 mg/kg/injection, schedule: Q01DX009 (ip), vehicle: other): 157 % of control
- T/C (dose: 6.0 mg/kg/injection, schedule: Q01DX009 (oral), vehicle: Klucel (hydroxypropylcellulose) (HPC)): 102 % of control
- T/C (dose: 6.0 mg/kg/injection, schedule: Q01DX009 (oral), vehicle: saline): 108 % of control
- T/C (dose: 6.25 mg/kg/injection, schedule: Q01DX009 (oral), vehicle: Klucel (hydroxypropylcellulose) (HPC)): 112 % of control and 113 % of control
- T/C (dose: 8.0 mg/kg/injection, schedule: Q01DX001 (ip), vehicle: suspension in saline): 108 % of control and 116 % of control
- T/C (dose: 10.0 mg/kg/injection, schedule: Q01DX001 (iv), vehicle: other): 116 % of control
- T/C (dose: 10.0 mg/kg/injection, schedule: Q01DX001 (oral), vehicle: other): 107 % of control
- T/C (dose: 10.0 mg/kg/injection, schedule: Q01DX005 (iv), vehicle: clinical formulation): 104 % of control
- T/C (dose: 10.0 mg/kg/injection, schedule: Q01DX005 (oral), vehicle: other): 112 % of control
- T/C (dose: 10.0 mg/kg/injection, schedule: Q01DX009 (ip), vehicle: clinical formulation): 170 % of control
- T/C (dose: 10.0 mg/kg/injection, schedule: Q01DX009 (ip), vehicle: saline with Tween-80): 121 % of control
- T/C (dose: 10.0 mg/kg/injection, schedule: Q01DX009 (oral), vehicle: other): 116 % of control
- T/C (dose: 12.0 mg/kg/injection, schedule: Q01DX005 (ip), vehicle: saline): 163 % of control and 167 % of control
- T/C (dose: 12.0 mg/kg/injection, schedule: Q01DX009 (ip), vehicle: Klucel (hydroxypropylcellulose) (HPC)): 121 % of control
- T/C (dose: 12.0 mg/kg/injection, schedule: Q01DX009 (ip), vehicle: other): 168 % of control
- T/C (dose: 12.0 mg/kg/injection, schedule: Q01DX009 (oral), vehicle: Klucel (hydroxypropylcellulose) (HPC)): 117 % of control
- T/C (dose: 12.0 mg/kg/injection, schedule: Q01DX009 (oral), vehicle: other): 100 % of control
- T/C (dose: 12.0 mg/kg/injection, schedule: Q01DX009 (oral), vehicle: saline): 110 % of control
- T/C (dose: 12.5 mg/kg/injection, schedule: Q01DX009 (oral), vehicle: Klucel (hydroxypropylcellulose) (HPC)): 115 % of control and 120 % of control
- T/C (dose: 15.0 mg/kg/injection, schedule: Q01DX009 (ip), vehicle: Klucel (hydroxypropylcellulose) (HPC)): 100 % of control
- T/C (dose: 16.0 mg/kg/injection, schedule: Q01DX001 (ip), vehicle: suspension in saline): 104 % of control
- T/C (dose: 20.0 mg/kg/injection, schedule: Q01DX001 (ip), vehicle: other): 151 % of control
- T/C (dose: 20.0 mg/kg/injection, schedule: Q01DX001 (iv), vehicle: other): 122 % of control
- T/C (dose: 20.0 mg/kg/injection, schedule: Q01DX001 (oral), vehicle: other): 104 % of control
- T/C (dose: 20.0 mg/kg/injection, schedule: Q01DX005 (oral), vehicle: other): 109 % of control
- T/C (dose: 24.0 mg/kg/injection, schedule: Q01DX005 (ip), vehicle: saline): 181 % of control
- T/C (dose: 24.0 mg/kg/injection, schedule: Q01DX005 (iv), vehicle: suspension in saline): 117 % of control
- T/C (dose: 24.0 mg/kg/injection, schedule: Q01DX009 (oral), vehicle: Klucel (hydroxypropylcellulose) (HPC)): 122 % of control
- T/C (dose: 24.0 mg/kg/injection, schedule: Q01DX009 (oral), vehicle: other): 107 % of control
- T/C (dose: 24.0 mg/kg/injection, schedule: Q01DX009 (oral), vehicle: saline): 113 % of control
- T/C (dose: 25.0 mg/kg/injection, schedule: Q01DX001 (ip), vehicle: Klucel (hydroxypropylcellulose) (HPC)): 168 % of control
- T/C (dose: 25.0 mg/kg/injection, schedule: Q01DX001 (ip), vehicle: saline): 175 % of control
- T/C (dose: 32.0 mg/kg/injection, schedule: Q01DX001 (ip), vehicle: suspension in saline): 101 % of control
- T/C (dose: 32.0 mg/kg/injection, schedule: Q01DX001 (oral), vehicle: suspension in saline): 100 % of control
- T/C (dose: 40.0 mg/kg/injection, schedule: Q01DX001 (ip), vehicle: other): 181 % of control
- T/C (dose: 40.0 mg/kg/injection, schedule: Q01DX001 (oral), vehicle: other): 101 % of control
- T/C (dose: 40.0 mg/kg/injection, schedule: Q01DX005 (oral), vehicle: other): 118 % of control
- T/C (dose: 40.0 mg/kg/injection, schedule: Q01DX009 (oral), vehicle: other): 115 % of control
- T/C (dose: 48.0 mg/kg/injection, schedule: Q01DX009 (oral), vehicle: Klucel (hydroxypropylcellulose) (HPC)): 119 % of control
- T/C (dose: 48.0 mg/kg/injection, schedule: Q01DX009 (oral), vehicle: other): 103 % of control
- T/C (dose: 48.0 mg/kg/injection, schedule: Q01DX009 (oral), vehicle: saline): 119 % of control
- T/C (dose: 50.0 mg/kg/injection, schedule: Q01DX009 (oral), vehicle: Klucel (hydroxypropylcellulose) (HPC)): 155 % of control
- T/C (dose: 64.0 mg/kg/injection, schedule: Q01DX001 (ip), vehicle: saline): 163 % of control
- T/C (dose: 64.0 mg/kg/injection, schedule: Q01DX001 (ip), vehicle: suspension in saline): 101 % of control
- T/C (dose: 64.0 mg/kg/injection, schedule: Q01DX001 (oral), vehicle: saline): 99 % of control
- T/C (dose: 64.0 mg/kg/injection, schedule: Q01DX001 (oral), vehicle: suspension in saline): 106 % of control and 108 % of control
- T/C (dose: 96.0 mg/kg/injection, schedule: Q01DX009 (oral), vehicle: other): 107 % of control
- T/C (dose: 100.0 mg/kg/injection, schedule: Q01DX009 (oral), vehicle: Klucel (hydroxypropylcellulose) (HPC)): 120 % of control
- T/C (dose: 128.0 mg/kg/injection, schedule: Q01DX001 (oral), vehicle: saline): 99 % of control
- T/C (dose: 128.0 mg/kg/injection, schedule: Q01DX001 (oral), vehicle: suspension in saline): 102 % of control and 109 % of control
- T/C (dose: 256.0 mg/kg/injection, schedule: Q01DX001 (oral), vehicle: saline): 107 % of control
- T/C (dose: 256.0 mg/kg/injection, schedule: Q01DX001 (oral), vehicle: suspension in saline): 103 % of control and 105 % of control

— PubChem BioAssay AID330 (DTP/NCI, 2004)
